Assay results published in patent US6368788B1 (priority 1987, dated 2002).
Marks after values point to notes of the source that are not given here.

How the values were obtained:
influenza = assay: Volunteers experimentally infected with influenza (Protocol I); conditions: human, in vivo
From the text: Thirty-four similarly infected volunteers (34) served as untreated controls. […] The hematological and immunological indices examined immediately following the period of treatment were restored to within the normal range.

Chronic osteomyelitis = assay: Chronic osteomyelitis; design: species or system human; conditions: in vivo
Procedure: L-Glu-L-Trp was administered to 176 patients with chronic osteomyelitis of various etiology and bone localizations. The control group consisted of 88 patients receiving conventional treatment. L-Glu-L-Trp was administered im as a single daily dosage of 100 μg, or intranasally at a dose of 1 μg/kg daily, over a period of 10 days.

[1] = system: human peripheral blood T-lymphocytes; assay: OKT4+ and OKT8+ lymphocytes from patients with secondary immunodeficiency after in vitro incubation; type: cell-based; conditions: for OKT4^+/OKT8^+ ratio / mean percentage of T-helper (OKT4^+) lymphocytes / mean percentage of T-suppressor (OKT8^+) lymphocytes: 45 minutes at 37° C.
From the text: The effects of L-Glu-L-Trp on human peripheral blood T-lymphocytes was investigated using indirect immunofluorescence microscopy and OKT4 and OKT8 monoclonal antibodies (Ortho, USA) directed to lymphocyte cell surface differentiation antigens. For these studies lymphocytes were isolated from heparinized peripheral blood (25 units heparin/mL) isolated from 18 different donors with inflammatory lung diseases and chronic purulent bronchitis accompanied by a secondary immunodeficiency state. Lymphocytes were prepared by centrifugation on Ficoll-Hypaque, washed, and then incubated in vitro for 45 minutes at 37° C. in the presence (or absence) of L-Glu-L-Trp at concentrations of 1 mg/mL, 0.01 mg/mL, 0.0001 mg/mL. Following incubation the cells were washed with Medium 199 and the percentage of OKT4^+ (T-helper) and OKT8^+ (T-suppressor) lymphocytes determined by indirect immunofluorescent microscopy. The results presented in TABLE 51 show the mean percentages of OKT4^+ and OKT8^+ cells in this group of patients after incubation with Medium 199 (Control), or with L-Glu-L-Trp.

[2] = Occupational radiation exposure to 100-200 R; design: species or system human; conditions: in vivo
From the text: A total of 263 patients and 18 control patients sustained exposure to 100-200 Roentgens of occupational radiation over a period of several weeks.

[3] = system: peripheral blood lymphocytes; assay: Protocol A3 Group 1A: chronic pyoderma; type: in vivo, human
From the text: Group 1A (a subgroup of Group 1) consisted of 32 patients (17 males and 15 females ranging from 17 to 42 years of age) with chronic pyococcal skin diseases including furunculosis, disseminated impetigo, multiple ecthymas, recurring osteofolliculitis, seborrhea adiposa, and concrete seborrhea complicated by vulgar or abscessing acne. Diseases were characterized by a chronic course or frequent relapses, and at the time of presentation for entry into the trial, all patients had received several prior courses of antibiotic therapy, none of which led to any detectable clinical improvement. Patients in Group 1A were randomly divided into two treatment groups, the first consisting of 16 patients treated with L-Glu-L-Trp according to Therapy A, below, and the second consisting of 16 patients treated (as a control) according to conventional therapeutic methods- i.e., Therapy B (below).
In treatment Protocol A, all patients received L-Glu-L-Trp in combination with antibiotics.
Therapy B (conventional therapy control): All patients in this protocol received the same antibiotics as in Therapy A and a nonspecific stimulatory agent, i.e., Thymogenin instead of L-Glu-L-Trp.
Local antibiotics were administered as follows: Ampicillin (4), oxacillin (4), Levomycetin (1), tetracycline (9), Rondomycin (2), deoxycycline (8), cephalexin (2), and Rifampicin (1).

[4] = DTH sensitization to Oxazolone (ear thickness); type: in vivo, mice; conditions: for Mean Ear Thickness ± S.D.: challenge day 7, measured at 24 hours
Procedure: Effects of L-Glu-L-Trp treatments on cell mediated immunity were evaluated by testing its effects on induction of a delayed-type hypersensitivity response in two different studies involving sensitization of mice to Oxazolone and guinea pigs to tuberculin.
In the first study L-Glu-L-Trp was administered ip at a dose of 10 μg/kg, or 1000 μg/kg one hour before a sensitizing dose of Oxazolone (0.1 mL of a 5% solution) was applied to the abdominal surface of a mouse. Seven days later skin sensitivity was measured by administering 25 μL of a 2% oxazolone solution to the right mouse ear and a sample of the diluent solution, as a control, to the left ear. Ear thickness was measured at 24 hours using a Dyer Model micrometer.

[5] = system: upper respiratory infections; assay: Prophylaxis of respiratory infections in polar explorers; type: in vivo, human; conditions: intranasal 1 μg/kg, 3 days
[6] = Thoracic cavity tumors: focal radiation therapy then L-Glu-L-Trp, clinical complications; type: in vivo, human; conditions: for Complications: Cardio-Pulm. / Complications: Mortality / Complications: Septic / Complications: Total: 5 × im 100 μg
Procedure: Surgical removal of thoracic tumors was followed in 38 patients by focal radiation therapy and then a course of L-Glu-L-Trp therapy consisting of 5 daily im injections of 100 μg L-Glu-L-Trp each. Only radiation therapy (and supportive antibiotic therapy) was administered as a control to 56 patients.

[7] = Group 1A chronic pyoderma, after L-Glu-L-Trp Therapy (n = 16)

L-Glu-L-Trp
Clinical outcome (influenza): normalization of fever, reduction in toxic symptoms | Clinical outcome (Chronic osteomyelitis): pronounced positive effect on clinical course | Percentage of detectable OKT8+ T-suppressor cells [1]: did not alter the percentage of detectable OKT 8^+ T-suppressor cells | Percentage of detectable T-helpers (OKT4+) ([1]; 1 and 0.01 mg/mL): increased the percentage of detectable T-helpers | OKT4^+/OKT8^+ ratio ([1]; Dose 0.0001 mg/ml): 1.1 | mean percentage of T-helper (OKT4^+) lymphocytes ([1]; Dose 0.0001 mg/ml): 25.4 ± 2.3 | mean percentage of T-suppressor (OKT8^+) lymphocytes ([1]; Dose 0.0001 mg/ml): 23.1 ± 2.1 | OKT4^+/OKT8^+ ratio ([1]; Dose 0.01 mg/ml): 1.8* | mean percentage of T-helper (OKT4^+) lymphocytes ([1]; Dose 0.01 mg/ml): 39.8 ± 2.4 | mean percentage of T-suppressor (OKT8^+) lymphocytes ([1]; Dose 0.01 mg/ml): 22.7 ± 1.8 | OKT4^+/OKT8^+ ratio ([1]; Dose 1 mg/ml): 1.9* | mean percentage of T-helper (OKT4^+) lymphocytes ([1]; Dose 1 mg/ml): 39.7 ± 2.7 | mean percentage of T-suppressor (OKT8^+) lymphocytes ([1]; Dose 1 mg/ml): 21.4 ± 1.3 | Outcome [2]: restoration of normal, or near normal, peripheral blood immune indices in all patients | B-Lymphocytes [3, 7]: 0.15 ± 0 ×10^9/L | B-Lymphocytes % Normal Value [3, 7]: (31%) | B-Lymphocytes (%) [3, 7]: 7 ± 3% | Basophils (%) [3, 7]: 0.01 ± 0% | Eosinophils (%) [3, 7]: 4.2 ± 1% | Erythrocyte (sed. rate mm) [3, 7]: 13.1 ± 1 mm | Erythrocytes [3, 7]: 4.2 ± 0.1 10^12/L | IgA [3, 7]: 2.7 ± 1 g/L | IgA % Normal Value [3, 7]: (143%) | IgG [3, 7]: 16.2 ± 1 g/L | IgG % Normal Value [3, 7]: (150%) | IgM [3, 7]: 1 ± 0 g/L | IgM % Normal Value [3, 7]: (65%) | Leukocytes [3, 7]: 8.7 ± 0.5 ×10^9/L | Leukocytes % Normal Value [3, 7]: (130%) | Lymphocytes [3, 7]: 2.0 ± 0.2 ×10^9/L | Lymphocytes % Normal Value [3, 7]: (71%) | Lymphocytes, % [3, 7]: 25.9 ± 2.2% | Monocytes, % [3, 7]: 4.5 ± 1% | Neutrophils, % [3, 7]: 63.8 ± 4% | T-Lymphocytes [3, 7]: 1.15 ± 0 ×10^9/L | T-Lymphocytes % Normal Value [3, 7]: (68%) | T-Lymphocytes (%) [3, 7]: 52.3 ± 5% | T-helper [3, 7]: 0.92 ± 0.09 ×10^9/L | T-helper % Normal Value [3, 7]: (70%) | T-helper (%) [3, 7]: 45.4 ± 4.9% | T-suppressor [3, 7]: 0.51 ± 0 ×10^9/L | T-suppressor % Normal Value [3, 7]: (131%) | T-suppressor (%) [3, 7]: 28.2 ± 4% | Blast Transform., Con-A ([3]; Group 1A, L-Glu-L-Trp Therapy): 62.8 ± 8 % of PBL | Blast Transform., PHA ([3]; Group 1A, L-Glu-L-Trp Therapy): 42.7 ± 7 % of PBL | Blast Transform., Staph-A ([3]; Group 1A, L-Glu-L-Trp Therapy): 85.6 ± 9 % of PBL | Mean Ear Thickness ± S.D. ([4]; 10 μg/kg ip one hour before Oxazolone sensitization): 17 ± 1 μm | DTH sensitivity ([4]; 1000 μg dose one hour prior to antigen): increase in DTH sensitivity to oxazolone | Mean Ear Thickness ± S.D. ([4]; 1000 μg/kg ip one hour before Oxazolone sensitization): 24 ± 1 μm | Clinical outcome [5]: prevented the occurrence of upper respiratory infections | Complications: Cardio-Pulm. ([6]; Esophagus, 22 patients): 1 | Complications: Mortality ([6]; Esophagus, 22 patients): 0 | Complications: Septic ([6]; Esophagus, 22 patients): 1 | Complications: Total ([6]; Esophagus, 22 patients): 2 | Complications: Cardio-Pulm. ([6]; Lung, 16 patients): 0 | Complications: Mortality ([6]; Lung, 16 patients): 0 | Complications: Septic ([6]; Lung, 16 patients): 0 | Complications: Total ([6]; Lung, 16 patients): 1 | Clinical outcome ([6]; human, in vivo): decreased the total number of complications
